Reference: ChEMBL document CHEMBL1127685, “A novel 3-substituted benzazepinone growth hormone secretagogue (L-692,429)” (1994)

Species: Rattus norvegicus
Assay: In vitro dose required for stimulation of GH release from rat pituitary cells
Format: functional
Conditions: Pituitary gland cell, read-out: ED50 (the source's name)

CC(C)(N)CC(=O)NC1Cc2ccccc2N(Cc2ccc(-c3ccccc3-c3nn[nH]n3)cc2)C1=O (stereo not given)
EC50: 2000 nM

CC(C)(N)CC(=O)NC1CCc2ccccc2N(Cc2ccc(-c3ccccc3C(=O)O)cc2)C1=O (stereo not given)
EC50: 3200 nM

CC(C)(N)CC(=O)N[C@@H]1CCc2ccccc2N(Cc2ccc(-c3ccccc3-c3nn[nH]n3)cc2)C1=O
EC50: 60 nM

CC(C)(N)CC(=O)NC1CCCc2ccccc2N(Cc2ccc(-c3ccccc3-c3nn[nH]n3)cc2)C1=O (stereo not given)
EC50: 8000 nM

CC(C)(N)CC(=O)NC1CCc2ccccc2N(Cc2ccc(-c3ccccc3-c3nn[nH]n3)cc2)C1=O [L-158432]
EC50: 160 nM
